This note sets out measurements from patent US9334271B2, “Purine derivatives and their use in the treatment of disease” (Novarits AG, priority 2012, dated 2016).

Like-named read-outs stand apart in the source and are kept apart here.

The IC50 is the concentration at which inhibition is half-maximal. Broadly, the EC50 is the concentration giving half of the maximal effect.

One test relates to H4 mCherry-GFP-LC3 cells. As to the kind of experiment: Test 3: Autophagy assay (mCherry-GFP-LC3 reporter, high-content imaging). It counts as cell-based, human. The following applies: 16-18 h treatment, mCherry-positive LC3 puncta/cell; for EC50: Homo sapiens. The source says:
Autophagy is a catabolic pathway that degrades bulk cytosol in lysosomal compartments enabling amino acids and fatty acids to be recycled. One of the key regulators of autophagy is the mammalian target of rapamycin (mTOR), a conserved serine/threonine kinase which suppresses the initiation of the autophagic process when nutrients, growth factors and energy are available. To quantify autophagy induction by mTOR inhibitors, we use a mCherry-GFP-LC3 reporter which is amenable to retroviral delivery into mammalian cells, stable expression and analysis by fluorescence microscopy.
The amino acid sequence of the mCherry-GFP-LC3 construct is shown below (SEQ ID NO: 1). The mCherry sequence is underlined, GFP sequence is in bold and LC3A sequence is boxed.
Described hereinafter is an imaging protocol and image recognition algorithm to visualize and measure changes in the autophagic pathway.
Quantification of Autophagy Using High-Content Imaging and Analysis
• 1. Day 0: Cell plating. Subconfluent H4 mCherry-GFP-LC3 cells are harvested by trypsinization, resuspended in growth medium, and counted (H4 cells: Human neuroglioma cell line (ATCC)). A cell suspension of 66′000 cells/mL is prepared and 30 μL are added into the wells of a 384-well plate using an electronic multichannel pipette. […] The cell plates are briefly spun down and placed at 37° C. and 5% CO2. • 2. Day 1: Compound treatment. Compound dose responses are prepared in DMSO. The dose responses are then diluted 1:50 in medium. 10 ul of the diluted compound is added to 30 ul of cells, yielding a final 1:200 dilution of the original compound and final of 0.5% DMSO. Compound-treatments are performed in triplicates. The 384-well plates are placed at 37° C. and 5% CO2. Compound treatment is performed for 16-18 h (see Note 1). • 3. Day 2: Cell fixation. Cells are fixed by adding 10 μL/well 5× concentrated Mirsky's fixative supplemented with 25 μg/mL Hoechst33342. […] The 384-well plate is briefly spun down and incubated for 1 h at room temperature. Cells are then washed using a 384-well plate washer using a protocol which aspirates the volume down to 10 μL/well before dispensing 100 μL/well 1×TBS. Aspiration and dispensing steps are repeated 4 times and a final volume of 100 μL/well is left. The plate is sealed using an adhesive PCR foil. • 4. Imaging. The bottom of the plate is cleaned with 70% ethanol and then imaged using the InCell 1000 automated epifluorescence microscope. 20× magnification is used and 4 different areas (fields) are imaged per well, this typically captures a total of around 400 cells per well. Hoechst33342 images are acquired using an excitation of 360 nm (D360_40x filter), an emission of 460 nm (HQ460_40M filter) and an exposure time of 150 ms. GFP images are acquired using an excitation of 475 nm (S475_20x filter), an emission of 535 nm (HQ535_50M filter) and an exposure time of 1 s. mCherry images are acquired using an excitation of 535 nm (HQ535_50x filter), an emission of 620 nm (HQ620_60M filter) and an exposure time of 1 s. A quadruple band pass mirror is used for all images. • 5. Image analysis. The InCell Analysis software is used to analyze the images using the Multi Target Analysis algorithm. First, nuclei are detected in the Hoechst33342 image using top-hat segmentation and a minimal nuclear area of 50 μm^2. Cells are defined using a collar of 10 μm around the nuclei. Second, puncta (organelles) are identified in the mCherry image inside the cells using multi-top-hat segmentation. Third, the mask of the mCherry puncta is transferred onto the GFP image. Fourth, the GFP fluorescence intensity inside the mCherry puncta mask is measured (reference intensity). • 6. The ‘organelles’ parameter reflects mCherry-positive puncta of the mCherry-GFP-LC3 reporter and is used to calculate ‘LC3 puncta/cell’. […]

Test [1] relates to cellular mTOR kinase activity (phosphorylation of Thr 389 of S6K1) in TSC1-/- MEFs. The test is described as follows: Test 2: Cellular mTOR assay (P-P70S6K T389 Surefire). The class given is cell-based. Particulars: Mus musculus. As for the experimental part: Test 2: Cellular mTOR Assay
30 μl are added per well to a 384 well-plate using a Multidrop instrument (Thermo scientific), resulting in 4000 cells/well. The plates are incubated at 37° C./5% CO2 for 20 hours (to allow for settling and adherance to the surface).
Eight 3-fold serial dilutions of test-compounds (beginning at 1.8 mM) are prepared in 90% DMSO and compiled on 384 well master plates (Greiner). A pan-pPI3K/mTOR inhibitor (0.8 mM of 8-(6-methoxy-pyridin-3-yl)-3-methyl-1-(4-piperazin-1-yl-3-trifluoromethyl-phenyl)-1,3-dihydro-imidazo[4,5-c]quinolin-2-one in 90% DMSO) is added to the wells for the low control. 90% DMSO is added to the wells for the high controls. Compounds are provided as 250 nl shots (Hummingbird) in 384 well-polypropylene microplates (compound plates). 50 μl of growth medium is added to the compound plates (dilution 1:200) with the Multidrop. After shaking (1 min at 2000 rpm), 10 μl of the first dilution is then transferred to the cell plate with a Matrix Plate Mate 2×3 pipettor (final dilution 1:4). After 1 hour of treatment, medium is removed from the plate and 20 μl of Surefire lysis buffer is added per well with the Multidrop.
Cell lysates are frozen for 15 minutes, thawed with shaking and transferred to the experimental 384 well-Proxiplate (5 μl/well) for the P-P70S6K (T389) Surefire assay (Perkin Elmer #TGR70S50). The first mix is composed of the reaction buffer (containing the specific antibody), the activation buffer and the acceptor beads (40 vol, 10 vol and 1 vol respectively). 5 μl per well is added to the lysates with a Zephyr® SPE Workstation (Caliper Life Sciences) and incubated for 2 hours with shaking at room temperature. After this incubation time, the second mix of dilution buffer and donor beads (20 vol and 1 vol respectively) is added to the plate with the same instrument (2 μl/well). After 2 hours, the plate can be read with an EnVision® Multilabel Reader (Perkin Elmer). Since the beads are light sensitive, their transfer and incubation is executed in a dark room (greenlight).
The raw data is used to generate dose response curves for test compounds and IC50 values calculated therefrom.

The target in the next test is recombinant human mTOR (Homo sapiens (Human), UniProt P42345). The test is described as follows: Test 1: mTOR ATP-binding assay based on TR-FRET. Particulars: GST-tagged truncated human mTOR, tracer-314, TR-FRET. On the procedure:
Test 1: mTOR ATP-Binding Assay Based on TR-FRET for Recombinant Human mTOR
2. The final volume of the assay is 10 μL and the order of addition is as follows:
50 nL of compounds dilution;
Incubated for 60 minutes at room temperature.
TR-FRET measured in Biotek Synergy2 reader at: • Excitation 340 nm/emission 665 nm • Excitation 340 nm/emission 620 nm
The following final concentrations are used:
1 nM Europium anti-GST antibody;
The following controls are used:
3. IC50 determinations may be performed as follows:
The Emission ratio is converted to percentage of inhibition for each compound concentration. IC50 values are calculated by fitting a sigmoidal dose-response curve to a plot of assay readout over compound concentration. All fits and analysis are performed with the program XLfit4 (ID Business Solutions, Guildford, UK).
A general note: Time-resolved FRET reads energy transfer from a long-lived donor to a nearby acceptor.

[2] abbreviates: TSC1-/- MEFs, 1 hour treatment, P-P70S6K (T389), read-out: Test 2: T389 cellular assay IC50.
[3] abbreviates: 1 h, read-out: Test 2: T389 cellular assay IC50 (nM).

recombinant human mTOR, sequence (P42345 1360-2549): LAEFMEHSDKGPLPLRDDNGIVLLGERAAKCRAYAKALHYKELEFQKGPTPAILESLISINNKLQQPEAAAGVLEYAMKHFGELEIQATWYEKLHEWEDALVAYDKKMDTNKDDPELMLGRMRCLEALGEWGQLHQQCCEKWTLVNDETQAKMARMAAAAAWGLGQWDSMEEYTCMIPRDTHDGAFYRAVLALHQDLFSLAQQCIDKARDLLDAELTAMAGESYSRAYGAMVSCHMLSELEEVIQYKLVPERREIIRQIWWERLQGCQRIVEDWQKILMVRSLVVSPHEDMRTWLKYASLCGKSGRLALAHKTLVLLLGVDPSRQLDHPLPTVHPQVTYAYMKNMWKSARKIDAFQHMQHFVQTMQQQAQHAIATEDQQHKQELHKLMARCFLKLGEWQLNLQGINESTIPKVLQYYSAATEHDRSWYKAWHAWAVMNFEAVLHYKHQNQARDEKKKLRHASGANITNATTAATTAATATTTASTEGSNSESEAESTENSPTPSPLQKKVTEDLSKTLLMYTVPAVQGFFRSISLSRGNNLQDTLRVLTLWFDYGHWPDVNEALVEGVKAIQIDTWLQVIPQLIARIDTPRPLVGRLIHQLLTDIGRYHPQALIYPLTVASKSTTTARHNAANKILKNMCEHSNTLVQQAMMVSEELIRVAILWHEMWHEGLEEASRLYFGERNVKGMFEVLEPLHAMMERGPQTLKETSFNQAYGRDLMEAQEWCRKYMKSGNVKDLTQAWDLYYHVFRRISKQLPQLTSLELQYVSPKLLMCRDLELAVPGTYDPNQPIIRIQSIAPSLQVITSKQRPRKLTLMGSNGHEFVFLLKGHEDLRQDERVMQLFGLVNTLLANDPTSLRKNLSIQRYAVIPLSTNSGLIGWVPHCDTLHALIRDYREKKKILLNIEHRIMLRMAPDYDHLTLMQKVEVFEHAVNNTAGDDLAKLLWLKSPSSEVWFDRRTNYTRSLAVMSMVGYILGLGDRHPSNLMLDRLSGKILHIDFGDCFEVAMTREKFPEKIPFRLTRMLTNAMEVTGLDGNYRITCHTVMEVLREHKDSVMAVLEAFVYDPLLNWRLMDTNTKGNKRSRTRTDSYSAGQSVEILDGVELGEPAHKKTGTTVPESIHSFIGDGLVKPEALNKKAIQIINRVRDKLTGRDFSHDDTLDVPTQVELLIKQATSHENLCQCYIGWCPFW

In the case of `C[C@@H]1COCCN1c1nc(N2CCN(C3COC3)CC2)nc2[nH]c(-c3cccc4[nH]ccc34)nc12` [Example 18, 8-(1H-Indol-4-yl)-6-((R)-3-methyl-morpholin-4-yl)-2-(4-oxetan-3-yl-piperazin-1-yl)-9H-purine], the “Test 3: Autophagy EC50 (nM)” value in the test with H4 mCherry-GFP-LC3 cells is recorded as “n.m”. In addition, the IC50 amounted to 249 nM in test [1] (setting [2]) and 91 nM at recombinant human mTOR.
In the test with H4 mCherry-GFP-LC3 cells, `CCC[C@@H]1COCCN1c1nc(N2CCOC[C@H]2C)c2nc(-c3cccc4[nH]ccc34)[nH]c2n1` [Example 12, 8-(1H-Indol-4-yl)-6-((R)-3-methyl-morpholin-4-yl)-2-((R)-3-propyl-morpholin-4-yl)-9H-purine] yielded an EC50 of 674 nM. Further, the IC50 stood at 534 nM in test [1] (setting [3]) and 194 nM at recombinant human mTOR.
On the same counts, the results for `C[C@H]1COCCN1c1nc(N2CCOC[C@@H]2C)c2nc(-c3ccc(N)nc3)[nH]c2n1` [Example 27, 5-[2,6-Bis-((S)-3-methyl-morpholin-4-yl)-9H-purin-8-yl]-pyridin-2-ylamine] are 4740 nM, 1190 nM and 2410 nM.
`C[C@@H]1COCCN1c1nc(N2CCOC[C@@H]2C)nc2[nH]c(-c3ccccn3)nc12` [Example 7, 2-((S)-3-Methyl-morpholin-4-yl)-6-((R)-3-methyl-morpholin-4-yl)-8-pyridin-2-yl-9H-purine] returned an EC50 with H4 mCherry-GFP-LC3 cells of 1320 nM. In addition, the results for the IC50 (in test [1] (setting [2]); on recombinant human mTOR) were 997 nM and 184 nM, respectively.
In the test with H4 mCherry-GFP-LC3 cells, `C[C@@H]1COCCN1c1nc(N2CCOC[C@H]2C)c2nc(-c3cc[nH]n3)[nH]c2n1` [Example 11, 2,6-Bis-((R)-3-methyl-morpholin-4-yl)-8-(1H-pyrazol-3-yl)-9H-purine] gave an EC50 of 1520 nM. Further, the values for the IC50 (in test [1] (setting [2]); on recombinant human mTOR) were 190 nM and 385 nM, respectively.
`C[C@H]1COCCN1c1nc(N2CCOC[C@@H]2C)c2nc(-c3ccccn3)[nH]c2n1` [Example 8, 2,6-Bis-((S)-3-methyl-morpholin-4-yl)-8-pyridin-2-yl-9H-purine]: in the test with H4 mCherry-GFP-LC3 cells, the “Test 3: Autophagy EC50 (nM)” value is on record as “n.m”. Moreover, the half-maximal inhibitory concentration (IC50) in test [1] (setting [2]) is 806 nM; at recombinant human mTOR, 1030 nM.
